Measured values: US20260294915A1, “COMBINATION THERAPY COMPRISING A MAT2A INHIBITOR AND A TOPOISOMERASE INHIBITOR, A SPLICING INHIBITOR SULFONAMIDE, OR A KIF18 INHIBITOR” (IDEAYA BIOSCIENCES, INC., priority 2023, published 2026)

Experiments:
Experiment in all cases: 10-day proliferation (CTG), equimolar Compound A + SPLAM (Example 4)
Format in all cases: cell-based
Details in all cases: 10 days, single agent or 1:1 combo
[1] = test system: NCI-H520
Experimental: (§1) A 10-day proliferation assay was performed in a panel of 5 MTAP-deficient and 2 wild type non-small cell lung and bladder cancer cell lines. Optimal cell seeding for all cell lines was determined by assessing the growth over a range of seeding densities in a 384-well format to identify conditions that permitted proliferation for 10 days. Cells were then plated at the optimal seeding density and treated with 20-point, two-fold dilution series of Compound A, the splicing inhibitor sulfonamide (SPLAM), or an equimolar combination of Compound A and the SPLAM. Combinations tested included Compound A in combination with four structurally different SPLAMs. Concentrations tested for Compound A and each SPLAM alone or in combination ranged from 0.04 nM to 20,000 nM. A plate of cells was harvested at the time of compound addition to quantify the number of cells at the start of the combination (T0). For cell quantification, the harvested cells were lysed with Promega CellTiter-Glo (CTG) reagent according to the manufacturer's protocol and the chemiluminescent signal was detected on a Synergy Neo plate reader. CTG estimates cell number through detection of cellular ATP levels. Cells were incubated with the drug combinations at 37° C. with 5% CO2 for 10 days. Cells were then lysed with CTG and the chemiluminescent signal was measured.
(§2) CTG values obtained after the 10-day treatment were background subtracted and expressed as a percent of the T0 value. Data were plotted against compound concentration and fit with a four-parameter equation to generate dose response curves for each single agent and the equimolar combination. Growth ICx (gICx) values ranging from gIC30 to gIC100 were interpolated from the fitted curves. Synergistic growth inhibition was assessed by determination of Combination Index (CI) values at these various points across the titration using the mutually non-exclusive equation [Chou, 1983; Chou, 1981] shown below where A equals the gICx value of Compound A, B equals the gICx value of the SPLAM, and A+B or B+A equals the gICx value of the equimolar combination. A Combination Index value less than 1.0 was considered synergistic.

[2] = test system: NCI-H838
Experimental: as §1, §2

[3] = test system: RT112/84
Experimental: as §1, §2

[4] = test system: SW900
Experimental: as §1, §2

[5] = test system: TCCSUP
Experimental: as §1, §2

[6] = test system: UMUC11
Experimental: as §1, §2

[7] = test system: UMUC5
Experimental: as §1, §2

Cc1ccc(NS(=O)(=O)c2cccc(C#N)c2)c2[nH]cc(C#N)c12 [Compound E7820, 3-cyano-N-(3-cyano-4-methyl-1H-indol-7-yl)benzenesulfonamide]
gIC30 [1]: 484 nM | gIC40 [1]: 596 nM | gIC60 [1]: 920 nM | gIC70 [1]: 1214 nM | gIC100 [1]: 20 µM | IC80 ([1]; read-out: gIC80): 1.84 µM | IC90 ([1]; read-out: gIC90): 12 µM | IC50 ([1]; Homo sapiens, NCI-H520, 240 h, read-out: gIC50): 0.734 µM | gIC30 [2]: 328 nM | gIC40 [2]: 357 nM | gIC60 [2]: 425 nM | gIC70 [2]: 472 nM | gIC100 [2]: 20 µM | IC80 ([2]; read-out: gIC80): 0.539 µM | IC90 ([2]; read-out: gIC90): 0.666 µM | IC50 ([2]; Homo sapiens, NCI-H838, 240 h, read-out: gIC50): 0.388 µM | gIC30 [3]: 213 nM | gIC40 [3]: 237 nM | gIC60 [3]: 290 nM | gIC70 [3]: 326 nM | gIC100 [3]: 10.429 µM | IC80 ([3]; read-out: gIC80): 0.375 µM | IC90 ([3]; read-out: gIC90): 0.466 µM | IC50 ([3]; Homo sapiens, RT112/84, 240 h, read-out: gIC50): 0.262 µM | gIC30 [4]: 284 nM | gIC40 [4]: 290 nM | gIC60 [4]: 303 nM | gIC70 [4]: 309 nM | gIC100 [4]: 362 nM | IC80 ([4]; read-out: gIC80): 0.318 µM | IC90 ([4]; read-out: gIC90): 0.33 µM | IC50 ([4]; Homo sapiens, SW900, 240 h, read-out: gIC50): 0.296 µM | gIC30 [5]: 20 µM | gIC40 [5]: 20 µM | gIC60 [5]: 20 µM | gIC70 [5]: 20 µM | gIC100 [5]: 20 µM | IC80 ([5]; read-out: gIC80): 20 µM | IC90 ([5]; read-out: gIC90): 20 µM | IC50 ([5]; Homo sapiens, TCC-SUP, 240 h, read-out: gIC50): 20 µM | IC50 ([6]; 240 h, read-out: gIC50): 0.452 µM | gIC30 [6]: 361 nM | gIC40 [6]: 404 nM | gIC60 [6]: 511 nM | gIC70 [6]: 589 nM | gIC100 [6]: 20 µM | IC80 ([6]; read-out: gIC80): 0.713 µM | IC90 ([6]; read-out: gIC90): 1.01 µM | IC50 ([7]; 240 h, read-out: gIC50): 0.46 µM | gIC30 [7]: 330 nM | gIC40 [7]: 390 nM | gIC60 [7]: 547 nM | gIC70 [7]: 673 nM | gIC100 [7]: 20 µM | IC80 ([7]; read-out: gIC80): 0.9 µM | IC90 ([7]; read-out: gIC90): 1.9 µM
